Results: ChEMBL document CHEMBL1201862, “PubChem BioAssay data set” (2004)
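Method: 48-hour compound exposure of cells in 96-well plates, five concentrations, linear interpolation of endpoints. At the GI50, growth is halved.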 Calls of active or inactive are those of the source. Cut-off read from the data, not from the text of the source: active = GI50 up to about 1.1 µM and inactive = higher.

How the values were obtained:
Assay in all cases: DTP human tumour cell line panel, 48 h
SW-620 = system: SW-620
UO-31 = system: UO-31
SK-MEL-5 = system: SK-MEL-5
RPMI-8226 = system: RPMI-8226
SNB-75 = system: SNB-75
TK-10 = system: TK-10
HL-60 = system: HL-60
SNB-19 = system: SNB-19
K562 = system: K562
SN12C = system: SN12C
HOP-92 = system: HOP-92
U-251 = system: U-251
CCRF-CEM = system: CCRF-CEM
UACC-62 = system: UACC-62
Malme-3M = system: Malme-3M
MOLT-4 = system: MOLT-4
SF-295 = system: SF-295
HCT-15 = system: HCT-15
SK-MEL-2 = system: SK-MEL-2
OVCAR-5 = system: OVCAR-5

Row | Structure (SMILES) | GI50 (SW-620) | GI50 (UO-31) | GI50 (SK-MEL-5) | GI50 (RPMI-8226) | GI50 (SNB-75) | GI50 (TK-10) | GI50 (HL-60) | GI50 (SNB-19) | GI50 (K562) | GI50 (SN12C) | GI50 (HOP-92) | GI50 (U-251) | GI50 (CCRF-CEM) | GI50 (UACC-62) | GI50 (Malme-3M) | GI50 (MOLT-4) | GI50 (SF-295) | GI50 (HCT-15) [µM] | GI50 (SK-MEL-2) | GI50 (OVCAR-5)
1 | Cc1c(OC(C)C(=O)O)ccc2c(-c3ccccc3)cc(=O)oc12 (stereo not given) | > 100 µM (inactive) | > 100 µM (inactive) | > 100 µM (inactive) | > 100 µM (inactive) | > 100 µM (inactive) | > 100 µM (inactive) | > 100 µM (inactive) | > 100 µM (inactive) | > 100 µM (inactive) | > 100 µM (inactive) | > 100 µM (inactive) | > 100 µM (inactive) | > 100 µM (inactive) | > 100 µM (inactive) | > 100 µM (inactive) | > 100 µM (inactive) | > 100 µM (inactive) |  |  | 
2 | O=C(Nc1ccc(Cl)c(Cl)c1)C(=O)C(C(=O)c1ccccc1F)C1OC(=O)c2ccccc21 (stereo not given) | 23.9 µM (inactive) | 18.8 µM (inactive) | 15.9 µM (inactive) | 18.2 µM (inactive) | 18.6 µM (inactive) | 38.8 µM (inactive) | 14.1 µM (inactive) | 17.5 µM (inactive) | 22 µM (inactive) | 19.2 µM (inactive) | 51.6 µM (inactive) | 12.7 µM (inactive) | 13.8 µM (inactive) | 14.8 µM (inactive) |  | 29.6 µM (inactive) | 37.5 µM (inactive) | 13.7 | 12.3 µM (inactive) | 49.1 µM (inactive)
3 | CC1(Br)S(=O)(=O)OCCOS1(=O)=O | > 100 µM (inactive) | > 100 µM (inactive) | > 100 µM (inactive) | > 100 µM (inactive) | > 100 µM (inactive) | > 100 µM (inactive) | > 100 µM (inactive) | > 100 µM (inactive) | > 100 µM (inactive) | > 100 µM (inactive) | > 100 µM (inactive) | > 100 µM (inactive) | > 100 µM (inactive) | > 100 µM (inactive) | > 100 µM (inactive) | > 100 µM (inactive) | > 100 µM (inactive) | > 100 | > 100 µM (inactive) | > 100 µM (inactive)
4 | C#CCN(Cc1ccc2nc(-c3ccccc3)c(Cl)nc2c1)c1ccc(F)cc1 | > 100 µM (inactive) | 80.7 µM (inactive) | 23.1 µM (inactive) | 39.7 µM (inactive) | > 100 µM (inactive) | > 100 µM (inactive) | 15.1 µM (inactive) | > 100 µM (inactive) |  | > 100 µM (inactive) | 47 µM (inactive) | > 100 µM (inactive) | 17.5 µM (inactive) | > 100 µM (inactive) | > 100 µM (inactive) | 0.767 µM (active) | > 100 µM (inactive) | 87.1 | > 100 µM (inactive) | > 100 µM (inactive)
5 | O=C(NC(Cc1ccc(Cl)cc1)C(=O)O)c1ccc(I)cc1 (stereo not given) | > 100 µM (inactive) | > 100 µM (inactive) | > 100 µM (inactive) | 84.7 µM (inactive) | 86.3 µM (inactive) |  | > 100 µM (inactive) | > 100 µM (inactive) | > 100 µM (inactive) | > 100 µM (inactive) | > 83.4 µM (inactive) | > 100 µM (inactive) | > 100 µM (inactive) | 64.9 µM (inactive) | > 100 µM (inactive) | > 75.9 µM (inactive) | > 100 µM (inactive) | > 100 | > 100 µM (inactive) | > 100 µM (inactive)
6 | Brc1cc(CCOC2CCCCO2)c(-c2sccc2CCOC2CCCCO2)s1 (stereo not given) | > 65.8 µM (inactive) | 14 µM (inactive) | 26.9 µM (inactive) | 23.9 µM (inactive) | 43.5 µM (inactive) | > 59.6 µM (inactive) | 17.8 µM (inactive) | > 100 µM (inactive) | 13.8 µM (inactive) | > 100 µM (inactive) | > 65.2 µM (inactive) | 57.8 µM (inactive) | 19.9 µM (inactive) | 58.5 µM (inactive) | 24.9 µM (inactive) | 22.2 µM (inactive) | 18.7 µM (inactive) | 33.3 | 27.4 µM (inactive) | > 100 µM (inactive)
7 | CC(C)CCNc1ncnc2[nH]ncc12 | > 100 µM (inactive) | > 100 µM (inactive) | 36.6 µM (inactive) | 34 µM (inactive) | > 100 µM (inactive) | > 100 µM (inactive) | > 100 µM (inactive) | > 100 µM (inactive) | 81.8 µM (inactive) | > 100 µM (inactive) | 34.2 µM (inactive) | > 100 µM (inactive) |  | > 100 µM (inactive) | > 100 µM (inactive) | 65.6 µM (inactive) | 52.1 µM (inactive) | > 100 | > 100 µM (inactive) | 49.4 µM (inactive)
8 | CCOC(=O)CCC1(C(=O)OCC)CCCCC1=O (stereo not given) | > 100 µM (inactive) | > 100 µM (inactive) | > 100 µM (inactive) | > 100 µM (inactive) | > 100 µM (inactive) | > 100 µM (inactive) | > 100 µM (inactive) | > 100 µM (inactive) | > 100 µM (inactive) |  | > 100 µM (inactive) | > 100 µM (inactive) | > 100 µM (inactive) |  | > 100 µM (inactive) | > 100 µM (inactive) | > 100 µM (inactive) |  | > 100 µM (inactive) | > 100 µM (inactive)
9 | C=CCNC(=O)N(CCC)CCCC(NC(C)=O)C(=O)NCc1ccccc1 (stereo not given) | > 100 µM (inactive) | > 100 µM (inactive) | > 100 µM (inactive) | > 100 µM (inactive) | > 100 µM (inactive) | > 100 µM (inactive) | > 100 µM (inactive) | > 100 µM (inactive) | > 100 µM (inactive) | > 100 µM (inactive) | > 100 µM (inactive) | > 100 µM (inactive) | > 100 µM (inactive) | > 100 µM (inactive) | > 100 µM (inactive) | > 100 µM (inactive) | > 100 µM (inactive) | > 100 | > 100 µM (inactive) | > 100 µM (inactive)
10 | CC(C)C1=C(O)C(=O)C2=C(C1=O)C(OC=O)C(O)C1C(C)(C)CCCC21C (stereo not given) | 3.1 µM (inactive) | 5.82 µM (inactive) | 3.7 µM (inactive) | 2.66 µM (inactive) | 10.8 µM (inactive) | 13.4 µM (inactive) | 3.56 µM (inactive) | 13.4 µM (inactive) | 6.35 µM (inactive) | 10.1 µM (inactive) | 7.46 µM (inactive) | 4.28 µM (inactive) | 3.27 µM (inactive) | 6.19 µM (inactive) | 7.08 µM (inactive) | 2.25 µM (inactive) | 14.2 µM (inactive) | 4.04 | 12.1 µM (inactive) | 15.8 µM (inactive)
11 | O=c1oc2ccc(-n3c(=O)c4ccccc4c4ccccc4c3=O)cc2c2ccccc12 | > 100 µM (inactive) | > 100 µM (inactive) | > 100 µM (inactive) | > 100 µM (inactive) | 27 µM (inactive) | > 100 µM (inactive) | > 100 µM (inactive) | 37.7 µM (inactive) | > 100 µM (inactive) | > 100 µM (inactive) | 36.5 µM (inactive) | 20.8 µM (inactive) | > 100 µM (inactive) | 64.6 µM (inactive) | > 100 µM (inactive) | > 100 µM (inactive) | > 100 µM (inactive) | > 100 | 28.3 µM (inactive) | > 100 µM (inactive)
12 | CCOC(=O)Cc1cc(OC)c(OC)cc1/C(Cl)=C(\CO)c1ccc(OC)c(OC)c1 | > 100 µM (inactive) | 80.5 µM (inactive) | 30.7 µM (inactive) | 37.5 µM (inactive) | 23.8 µM (inactive) | > 100 µM (inactive) | > 100 µM (inactive) | 50.2 µM (inactive) | > 100 µM (inactive) | > 100 µM (inactive) | 25.2 µM (inactive) | 64 µM (inactive) | > 100 µM (inactive) | > 100 µM (inactive) | > 100 µM (inactive) | > 100 µM (inactive) | 39.8 µM (inactive) | > 100 |  | 
13 | C=C(C)C1Cc2c(cc(O)c3c(=O)c4ccccc4n(C)c23)O1 (stereo not given) | 36 µM (inactive) |  | 27.7 µM (inactive) | > 100 µM (inactive) | 14.9 µM (inactive) | 17.5 µM (inactive) | 39 µM (inactive) | 13.9 µM (inactive) |  | 43.1 µM (inactive) | 20.6 µM (inactive) | 56 µM (inactive) | 15.4 µM (inactive) |  | 64.4 µM (inactive) | > 100 µM (inactive) | 7.45 µM (inactive) | > 100 | 34.8 µM (inactive) | > 100 µM (inactive)
14 | COc1cc(C2c3cc4c(cc3[C@@H](Nc3cccc(CO)c3)C3COC(=O)[C@H]23)OCO4)cc(OC)c1O (stereo not given in full) | 1.41 µM (inactive) | 0.541 µM (active) | 0.56 µM (active) | 0.244 µM (active) | 0.94 µM (active) |  | < 0.0218 µM (active) | 0.453 µM (active) | 0.178 µM (active) | 0.558 µM (active) | 0.569 µM (active) | 0.516 µM (active) | 0.078 µM (active) | 0.307 µM (active) | 1.56 µM (inactive) | 0.0448 µM (active) | 0.218 µM (active) | 0.875 | 2.74 µM (inactive) | 2.04 µM (inactive)
15 | COC(=O)N[C@H](C(=O)NC(OCc1ccccc1)C1COC(C)(C)O1)C(C)O[Si](C)(C)C(C)(C)C (stereo not given in full) | 75.3 µM (inactive) | > 100 µM (inactive) | 26.7 µM (inactive) | 22.4 µM (inactive) | 38.4 µM (inactive) | > 100 µM (inactive) | 75.7 µM (inactive) | > 100 µM (inactive) | > 100 µM (inactive) |  | 70 µM (inactive) | 88.7 µM (inactive) | > 100 µM (inactive) |  | > 100 µM (inactive) | 31.4 µM (inactive) |  | 58.3 |  | > 100 µM (inactive)
